Measured values as given in BindingDB's records for doi:10.1016/s0960-894x(01)00493-0 (National Cancer Institute-Frederick, 2001).

Target: Urokinase-type plasminogen activator (Homo sapiens) (UniProt P00749)
Assay: Compound was tested for microPa) Urokinase-type plasminogen activator from human urine

CC[C@H](C)[C@@H]1NC(=O)[C@@H]2CCCN2C(=O)[C@@H]2CCCN2C(=O)[C@H]([C@@H](C)CC)NC(=O)[C@H](CO)NC(=O)[C@H](CCCCN)NC(=O)[C@H]([C@@H](C)O)NC(=O)[C@@H]2CSSC[C@H](NC1=O)C(=O)N[C@@H](Cc1ccccc1)C(=O)N1CCC[C@H]1C(=O)N[C@@H](CC(=O)O)C(=O)NCC(=O)N[C@@H](CCCNC(=N)N)C(=O)N2
Ki: 500 µM
